Measurements published in the kinase profiling compilation of Christmann-Franck et al. (2016).

What was measured:
Assay in all cases: radiometric filter-binding kinase assay
CHEK2 (human) = CHEK2 (human) (UniProt O96017)
PAK7 (human) = PAK7 (human) (UniProt Q9P286)
MAP2K1 (human) = MAP2K1 (human) (UniProt Q02750)
MAPK3 (human) = MAPK3 (human) (UniProt P27361)
CSK (human) = CSK (human) (UniProt P41240)
MAPK1 (human) = MAPK1 (human) (UniProt P28482)
RPS6KA1 KD1 KD2 (human) = RPS6KA1 KD1 KD2 (human) (UniProt Q15418)
IKBKE (human) = IKBKE (human) (UniProt Q14164)
[1] = tested on: AKT2 (human), P31751 [S474D]
BTK (human) = BTK (human) (UniProt Q06187)
SYK (human) = SYK (human) (UniProt P43405)
NEK6 (human) = NEK6 (human) (UniProt Q9HC98)
MAPK14 (human) = MAPK14 (human) (UniProt Q16539)
INSRR (human) = INSRR (human) (UniProt P14616)
CSNK1D (human) = CSNK1D (human) (UniProt P48730)
FLT1 (human) = FLT1 (human) (UniProt P17948)
RPS6KA3 KD1 KD2 (human) = RPS6KA3 KD1 KD2 (human) (UniProt P51812)
IKBKB (human) = IKBKB (human) (UniProt O14920)
PRKAA1 or PRKAA2 (rat) = details: accession and sequence are those of the human protein
NEK2 (human) = NEK2 (human) (UniProt P51955)
MAPK15 (human) = MAPK15 (human) (UniProt Q8TD08)
[2] = tested on: RPS6KB1 (human), P23443 [T412E]
PLK1 (human) = PLK1 (human) (UniProt P53350)
CDK2 CCNA2 (human) = CDK2 CCNA2 (human) (UniProt P20248+P24941)
SRC (human) = SRC (human) (UniProt P12931)
MKNK2 (human) = MKNK2 (human) (UniProt Q9HBH9)
RPS6KA5 KD1 KD2 (human) = RPS6KA5 KD1 KD2 (human) (UniProt O75582)
PRKACA (human) = PRKACA (human) (UniProt P17612)
PIM2 (human) = PIM2 (human) (UniProt Q9P1W9)
Chain of PIM2 (human) (Q9P1W9 whole entry, looked up): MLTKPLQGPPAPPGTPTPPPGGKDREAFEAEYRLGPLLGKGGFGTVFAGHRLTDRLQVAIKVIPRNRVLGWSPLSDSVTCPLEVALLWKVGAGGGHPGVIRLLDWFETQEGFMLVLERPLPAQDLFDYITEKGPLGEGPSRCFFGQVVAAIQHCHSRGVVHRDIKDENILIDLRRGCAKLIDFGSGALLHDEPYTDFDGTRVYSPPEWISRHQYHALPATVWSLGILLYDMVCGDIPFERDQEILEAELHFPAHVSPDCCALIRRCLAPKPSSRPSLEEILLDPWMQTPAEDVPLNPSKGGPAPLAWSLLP

Chain of CSNK1D (human) (P48730 whole entry, looked up): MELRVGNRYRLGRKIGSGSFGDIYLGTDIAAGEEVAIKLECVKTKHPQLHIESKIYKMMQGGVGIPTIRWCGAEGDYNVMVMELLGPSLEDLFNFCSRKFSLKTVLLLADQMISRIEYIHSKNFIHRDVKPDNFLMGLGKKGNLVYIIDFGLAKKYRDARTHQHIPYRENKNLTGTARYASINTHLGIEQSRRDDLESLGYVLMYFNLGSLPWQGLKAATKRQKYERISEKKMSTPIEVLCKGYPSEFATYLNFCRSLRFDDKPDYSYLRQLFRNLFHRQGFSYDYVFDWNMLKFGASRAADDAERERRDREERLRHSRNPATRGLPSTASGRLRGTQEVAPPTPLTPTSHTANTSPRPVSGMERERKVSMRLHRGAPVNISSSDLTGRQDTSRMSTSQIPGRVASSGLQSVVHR
Chain of NEK2 (human) (P51955 whole entry, looked up): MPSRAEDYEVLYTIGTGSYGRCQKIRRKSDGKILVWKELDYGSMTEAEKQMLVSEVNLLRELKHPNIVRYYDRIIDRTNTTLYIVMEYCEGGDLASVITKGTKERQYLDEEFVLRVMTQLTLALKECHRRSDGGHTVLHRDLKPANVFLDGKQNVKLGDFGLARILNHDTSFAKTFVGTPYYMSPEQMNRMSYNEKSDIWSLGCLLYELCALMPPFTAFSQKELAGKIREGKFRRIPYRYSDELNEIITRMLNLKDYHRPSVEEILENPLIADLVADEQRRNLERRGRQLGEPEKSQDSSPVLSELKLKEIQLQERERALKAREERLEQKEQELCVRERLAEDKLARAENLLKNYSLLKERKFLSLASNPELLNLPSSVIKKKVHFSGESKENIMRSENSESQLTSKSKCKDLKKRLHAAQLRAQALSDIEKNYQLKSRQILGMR
Chain of MAPK1 (human) (P28482 whole entry, looked up): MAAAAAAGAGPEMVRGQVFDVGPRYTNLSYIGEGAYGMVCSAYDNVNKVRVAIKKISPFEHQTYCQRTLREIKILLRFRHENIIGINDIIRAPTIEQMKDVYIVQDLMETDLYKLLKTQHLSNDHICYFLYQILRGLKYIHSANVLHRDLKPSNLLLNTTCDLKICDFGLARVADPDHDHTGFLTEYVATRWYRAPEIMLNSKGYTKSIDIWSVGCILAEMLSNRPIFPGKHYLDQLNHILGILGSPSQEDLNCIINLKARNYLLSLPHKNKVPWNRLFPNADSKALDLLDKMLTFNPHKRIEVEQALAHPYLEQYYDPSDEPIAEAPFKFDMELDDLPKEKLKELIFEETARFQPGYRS
Chain of MAPK15 (human) (Q8TD08 whole entry, looked up): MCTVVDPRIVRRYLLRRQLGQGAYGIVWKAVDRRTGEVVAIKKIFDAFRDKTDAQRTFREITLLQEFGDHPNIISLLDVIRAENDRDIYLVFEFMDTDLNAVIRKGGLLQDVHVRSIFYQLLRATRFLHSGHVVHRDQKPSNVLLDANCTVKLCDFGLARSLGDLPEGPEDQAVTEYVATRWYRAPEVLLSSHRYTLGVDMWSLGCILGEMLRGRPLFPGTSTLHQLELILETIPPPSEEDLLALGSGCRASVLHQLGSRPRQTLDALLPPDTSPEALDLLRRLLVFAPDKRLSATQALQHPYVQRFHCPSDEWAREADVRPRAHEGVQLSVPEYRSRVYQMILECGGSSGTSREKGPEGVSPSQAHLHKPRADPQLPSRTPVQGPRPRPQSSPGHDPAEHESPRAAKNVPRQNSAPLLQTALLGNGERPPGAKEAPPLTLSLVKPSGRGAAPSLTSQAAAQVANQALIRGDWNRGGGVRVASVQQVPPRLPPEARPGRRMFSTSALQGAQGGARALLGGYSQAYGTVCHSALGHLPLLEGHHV
Chain of RPS6KA1 KD1 KD2 (human) (Q15418 whole entry, looked up): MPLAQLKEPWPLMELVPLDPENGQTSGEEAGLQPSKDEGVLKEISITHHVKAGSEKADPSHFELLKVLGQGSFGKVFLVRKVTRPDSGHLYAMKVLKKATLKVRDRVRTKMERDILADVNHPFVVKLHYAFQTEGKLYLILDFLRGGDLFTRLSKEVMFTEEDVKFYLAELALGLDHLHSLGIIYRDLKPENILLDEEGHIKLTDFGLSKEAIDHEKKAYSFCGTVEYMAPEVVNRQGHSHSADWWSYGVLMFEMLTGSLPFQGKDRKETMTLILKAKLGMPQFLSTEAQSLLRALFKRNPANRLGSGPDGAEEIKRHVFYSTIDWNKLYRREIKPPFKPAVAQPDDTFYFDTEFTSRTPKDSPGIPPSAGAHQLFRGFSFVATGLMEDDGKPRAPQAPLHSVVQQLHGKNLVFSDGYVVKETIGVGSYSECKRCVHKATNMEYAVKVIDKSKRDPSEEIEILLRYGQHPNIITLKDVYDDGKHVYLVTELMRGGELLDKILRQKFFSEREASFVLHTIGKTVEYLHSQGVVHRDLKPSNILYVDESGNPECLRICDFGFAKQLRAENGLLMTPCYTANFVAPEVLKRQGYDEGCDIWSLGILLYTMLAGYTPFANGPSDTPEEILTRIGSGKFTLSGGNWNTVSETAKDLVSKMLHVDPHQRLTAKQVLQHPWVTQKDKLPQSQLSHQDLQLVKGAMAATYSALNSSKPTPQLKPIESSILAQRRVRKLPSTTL
Chain of PAK7 (human) (Q9P286 whole entry, looked up): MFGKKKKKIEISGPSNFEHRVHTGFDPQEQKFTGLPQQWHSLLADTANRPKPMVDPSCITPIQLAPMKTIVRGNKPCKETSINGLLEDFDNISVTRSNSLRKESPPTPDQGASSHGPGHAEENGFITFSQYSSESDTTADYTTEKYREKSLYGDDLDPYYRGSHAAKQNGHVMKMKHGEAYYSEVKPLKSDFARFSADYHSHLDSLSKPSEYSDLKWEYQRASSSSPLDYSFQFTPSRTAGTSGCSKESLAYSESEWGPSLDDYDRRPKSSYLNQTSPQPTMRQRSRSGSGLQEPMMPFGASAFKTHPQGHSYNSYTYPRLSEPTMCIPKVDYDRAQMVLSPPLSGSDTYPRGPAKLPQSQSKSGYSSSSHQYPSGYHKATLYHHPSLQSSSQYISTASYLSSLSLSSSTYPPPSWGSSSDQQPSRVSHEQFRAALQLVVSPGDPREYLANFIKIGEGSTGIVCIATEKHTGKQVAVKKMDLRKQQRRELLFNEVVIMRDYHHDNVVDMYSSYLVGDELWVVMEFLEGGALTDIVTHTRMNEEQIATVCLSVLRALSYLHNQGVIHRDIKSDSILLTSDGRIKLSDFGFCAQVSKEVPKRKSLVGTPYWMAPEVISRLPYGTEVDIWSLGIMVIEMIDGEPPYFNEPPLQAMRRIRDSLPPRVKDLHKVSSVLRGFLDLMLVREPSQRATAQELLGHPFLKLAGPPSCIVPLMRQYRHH
Chain of BTK (human) (Q06187 whole entry, looked up): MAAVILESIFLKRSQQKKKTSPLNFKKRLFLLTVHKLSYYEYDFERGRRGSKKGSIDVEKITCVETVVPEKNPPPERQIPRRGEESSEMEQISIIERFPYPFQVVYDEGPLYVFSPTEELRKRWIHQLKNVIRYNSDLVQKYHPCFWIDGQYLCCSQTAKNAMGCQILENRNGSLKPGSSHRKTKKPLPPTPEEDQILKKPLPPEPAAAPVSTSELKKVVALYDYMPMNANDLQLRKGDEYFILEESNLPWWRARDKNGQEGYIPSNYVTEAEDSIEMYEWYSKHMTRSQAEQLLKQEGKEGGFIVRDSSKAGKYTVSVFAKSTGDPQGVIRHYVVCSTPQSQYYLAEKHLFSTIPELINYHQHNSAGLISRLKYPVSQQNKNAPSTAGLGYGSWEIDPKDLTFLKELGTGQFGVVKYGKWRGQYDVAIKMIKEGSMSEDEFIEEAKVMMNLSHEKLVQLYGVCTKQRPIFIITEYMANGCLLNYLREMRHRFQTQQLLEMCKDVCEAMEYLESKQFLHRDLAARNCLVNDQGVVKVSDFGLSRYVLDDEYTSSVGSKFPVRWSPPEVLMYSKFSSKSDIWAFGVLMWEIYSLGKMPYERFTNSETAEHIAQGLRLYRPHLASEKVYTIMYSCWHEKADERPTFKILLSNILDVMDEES
Chain of MAPK14 (human) (Q16539 whole entry, looked up): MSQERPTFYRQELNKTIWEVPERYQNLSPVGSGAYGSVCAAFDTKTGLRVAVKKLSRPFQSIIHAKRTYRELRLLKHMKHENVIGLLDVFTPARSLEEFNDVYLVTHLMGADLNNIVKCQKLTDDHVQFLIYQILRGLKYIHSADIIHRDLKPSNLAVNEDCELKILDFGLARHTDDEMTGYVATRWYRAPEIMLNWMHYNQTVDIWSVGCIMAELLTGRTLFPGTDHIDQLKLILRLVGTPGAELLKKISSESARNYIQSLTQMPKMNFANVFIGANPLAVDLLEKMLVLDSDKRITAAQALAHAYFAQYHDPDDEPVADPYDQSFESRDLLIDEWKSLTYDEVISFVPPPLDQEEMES
Chain of MAPK3 (human) (P27361 whole entry, looked up): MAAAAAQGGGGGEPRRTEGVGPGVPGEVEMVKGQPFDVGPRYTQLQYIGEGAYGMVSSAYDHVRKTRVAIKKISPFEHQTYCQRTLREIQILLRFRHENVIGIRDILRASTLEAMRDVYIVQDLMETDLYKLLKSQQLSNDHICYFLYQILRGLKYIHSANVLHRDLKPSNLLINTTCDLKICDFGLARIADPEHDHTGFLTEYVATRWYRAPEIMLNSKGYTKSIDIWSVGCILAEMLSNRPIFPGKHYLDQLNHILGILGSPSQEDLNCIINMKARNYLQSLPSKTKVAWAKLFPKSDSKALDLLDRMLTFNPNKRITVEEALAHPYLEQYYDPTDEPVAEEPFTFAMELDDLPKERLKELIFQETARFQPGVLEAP

## C[C@H]1CCCC(=O)CCC/C=C/c2cc(O)cc(O)c2C(=O)O1
CHEK2 (human); compound 1.0 µM
  residual activity: 93%
CHEK2 (human); compound 10.0 µM
  residual activity: 73%
PAK7 (human); compound 1.0 µM
  residual activity: 93%
PAK7 (human); compound 10.0 µM
  residual activity: 80%
MAP2K1 (human); compound 1.0 µM
  residual activity: 66%
MAP2K1 (human); compound 10.0 µM
  residual activity: 55%
MAPK3 (human); compound 1.0 µM
  residual activity: 113%
MAPK3 (human); compound 10.0 µM
  residual activity: 107%
CSK (human); compound 1.0 µM
  residual activity: 80%
CSK (human); compound 10.0 µM
  residual activity: 64%
MAPK1 (human); compound 1.0 µM
  residual activity: 98%
MAPK1 (human); compound 10.0 µM
  residual activity: 96%
RPS6KA1 KD1 KD2 (human); compound 1.0 µM
  residual activity: 89%
RPS6KA1 KD1 KD2 (human); compound 10.0 µM
  residual activity: 41%
IKBKE (human); compound 1.0 µM
  residual activity: 95%
IKBKE (human); compound 10.0 µM
  residual activity: 82%
[1]; compound 1.0 µM
  residual activity: 97%
[1]; compound 10.0 µM
  residual activity: 89%
BTK (human); compound 1.0 µM
  residual activity: 107%
BTK (human); compound 10.0 µM
  residual activity: 69%
SYK (human); compound 1.0 µM
  residual activity: 93%
SYK (human); compound 10.0 µM
  residual activity: 84%
NEK6 (human); compound 1.0 µM
  residual activity: 91%
NEK6 (human); compound 10.0 µM
  residual activity: 91%
MAPK14 (human); compound 1.0 µM
  residual activity: 93%
MAPK14 (human); compound 10.0 µM
  residual activity: 85%
INSRR (human); compound 1.0 µM
  residual activity: 75%
INSRR (human); compound 10.0 µM
  residual activity: 41%
CSNK1D (human); compound 1.0 µM
  residual activity: 99%
CSNK1D (human); compound 10.0 µM
  residual activity: 83%
FLT1 (human); compound 1.0 µM
  residual activity: 95%
FLT1 (human); compound 10.0 µM
  residual activity: 69%
RPS6KA3 KD1 KD2 (human); compound 1.0 µM
  residual activity: 80%
RPS6KA3 KD1 KD2 (human); compound 10.0 µM
  residual activity: 52%
IKBKB (human); compound 1.0 µM
  residual activity: 101%
IKBKB (human); compound 10.0 µM
  residual activity: 78%
PRKAA1 or PRKAA2 (rat); compound 1.0 µM
  residual activity: 94%
PRKAA1 or PRKAA2 (rat); compound 10.0 µM
  residual activity: 60%
NEK2 (human); compound 1.0 µM
  residual activity: 93%
NEK2 (human); compound 10.0 µM
  residual activity: 96%
MAPK15 (human); compound 1.0 µM
  residual activity: 77%
MAPK15 (human); compound 10.0 µM
  residual activity: 26%
[2]; compound 1.0 µM
  residual activity: 106%
[2]; compound 10.0 µM
  residual activity: 61%
PLK1 (human); compound 1.0 µM
  residual activity: 76%
PLK1 (human); compound 10.0 µM
  residual activity: 63%
CDK2 CCNA2 (human); compound 1.0 µM
  residual activity: 82%
CDK2 CCNA2 (human); compound 10.0 µM
  residual activity: 32%
SRC (human); compound 1.0 µM
  residual activity: 89%
SRC (human); compound 10.0 µM
  residual activity: 34%
MKNK2 (human); compound 1.0 µM
  residual activity: 64%
MKNK2 (human); compound 10.0 µM
  residual activity: 23%
RPS6KA5 KD1 KD2 (human); compound 10.0 µM
  residual activity: 36%
PRKACA (human); compound 1.0 µM
  residual activity: 97%
PRKACA (human); compound 10.0 µM
  residual activity: 91%
PIM2 (human); compound 1.0 µM
  residual activity: 86%
PIM2 (human); compound 10.0 µM
  residual activity: 45%

## Cn1c(=O)c2c(ncn2C)n(C)c1=O
CHEK2 (human); compound 0.1 µM
  residual activity: 86%
CHEK2 (human); compound 1.0 µM
  residual activity: 83%
PAK7 (human); compound 0.1 µM
  residual activity: 102%
PAK7 (human); compound 1.0 µM
  residual activity: 114%
MAPK3 (human); compound 0.1 µM
  residual activity: 99%
MAPK3 (human); compound 1.0 µM
  residual activity: 113%
CSK (human); compound 0.1 µM
  residual activity: 100%
CSK (human); compound 1.0 µM
  residual activity: 103%
MAPK1 (human); compound 0.1 µM
  residual activity: 96%
MAPK1 (human); compound 1.0 µM
  residual activity: 101%
RPS6KA1 KD1 KD2 (human); compound 0.1 µM
  residual activity: 74%
RPS6KA1 KD1 KD2 (human); compound 1.0 µM
  residual activity: 78%
IKBKE (human); compound 0.1 µM
  residual activity: 87%
IKBKE (human); compound 1.0 µM
  residual activity: 90%
[1]; compound 0.1 µM
  residual activity: 81%
[1]; compound 1.0 µM
  residual activity: 84%
BTK (human); compound 0.1 µM
  residual activity: 79%
BTK (human); compound 1.0 µM
  residual activity: 78%
SYK (human); compound 0.1 µM
  residual activity: 92%
SYK (human); compound 1.0 µM
  residual activity: 86%
NEK6 (human); compound 0.1 µM
  residual activity: 79%
NEK6 (human); compound 1.0 µM
  residual activity: 89%
MAPK14 (human); compound 0.1 µM
  residual activity: 88%
MAPK14 (human); compound 1.0 µM
  residual activity: 89%
INSRR (human); compound 0.1 µM
  residual activity: 86%
INSRR (human); compound 1.0 µM
  residual activity: 80%
CSNK1D (human); compound 0.1 µM
  residual activity: 118%
CSNK1D (human); compound 1.0 µM
  residual activity: 120%
FLT1 (human); compound 0.1 µM
  residual activity: 80%
FLT1 (human); compound 1.0 µM
  residual activity: 84%
RPS6KA3 KD1 KD2 (human); compound 0.1 µM
  residual activity: 98%
RPS6KA3 KD1 KD2 (human); compound 1.0 µM
  residual activity: 79%
IKBKB (human); compound 0.1 µM
  residual activity: 90%
IKBKB (human); compound 1.0 µM
  residual activity: 100%
PRKAA1 or PRKAA2 (rat); compound 0.1 µM
  residual activity: 90%
PRKAA1 or PRKAA2 (rat); compound 1.0 µM
  residual activity: 98%
NEK2 (human); compound 0.1 µM
  residual activity: 107%
NEK2 (human); compound 1.0 µM
  residual activity: 102%
MAPK15 (human); compound 0.1 µM
  residual activity: 88%
MAPK15 (human); compound 1.0 µM
  residual activity: 95%
[2]; compound 0.1 µM
  residual activity: 100%
[2]; compound 1.0 µM
  residual activity: 98%
PLK1 (human); compound 0.1 µM
  residual activity: 92%
PLK1 (human); compound 1.0 µM
  residual activity: 95%
CDK2 CCNA2 (human); compound 0.1 µM
  residual activity: 86%
CDK2 CCNA2 (human); compound 1.0 µM
  residual activity: 91%
SRC (human); compound 0.1 µM
  residual activity: 96%
SRC (human); compound 1.0 µM
  residual activity: 88%
MKNK2 (human); compound 0.1 µM
  residual activity: 87%
MKNK2 (human); compound 1.0 µM
  residual activity: 91%
RPS6KA5 KD1 KD2 (human); compound 0.1 µM
  residual activity: 80%
RPS6KA5 KD1 KD2 (human); compound 1.0 µM
  residual activity: 82%
PRKACA (human); compound 0.1 µM
  residual activity: 103%
PRKACA (human); compound 1.0 µM
  residual activity: 96%
PIM2 (human); compound 0.1 µM
  residual activity: 113%
